37 compounds from patent US10654808B2, “Tyrosine kinase inhibitor and pharmaceutical composition comprising same” (GUANGDONG RAYNOVENT BIOTECH CO., LTD., priority 2015, dated 2020) can be followed below.

What all share (format): biochemical
The target in one assay is T1, FGFR1 (Homo sapiens, UniProt P11362).
T1 construct: purchased Life technology
As to the kind of experiment: Z'-LYTE in vitro enzyme activity assay, FGFR1. Conditions: 25 μM ATP, 60 minutes, room temperature; read-out: IC50 detected by Z'-LYTE, FGFR1. The procedure: (§1) The enzyme activity was measured by Z′-LYTE™ Detection Kinase Assay. The IC50 value of the compounds was used as an index to evaluate the inhibitory effect of the compounds on VEGFR2, FGFR1 and PDGFRB.
(§2) Recombinant human VEGFR2 and FGFR1 proteases were purchased from Life technology, PDGFRB Protease was purchased from Millipore.
(§3) Z-LYTE™ Kit Tyr1 and Tyr4 were purchased from Life technology. Multi-microplate reader, Envision (PerkinElmer) read board was used.
(§4) The test compounds were diluted 3 times with a concentration gradient, the final concentration was from 10 μM to 0.17 nM with a total of 11 concentrations, and each concentration had two parallel holes; the content of DMSO in the assay was 1%.
1 nM FGFR1 protein kinase, 2 μM Tyr4 peptide, 25 μM ATP, 50 mM HEPES (pH 7.5), 10 mM MgCl2, 1 mM EGTA, 0.01% BRIJ-35, 2 mM MnCl2, 1 mM DTT. The detector plate was Black Proxiplate 384-Plus plate (PerkinElmer), the reaction was performed at room temperature for 60 minutes, and the reaction system was 10 μl.
(§5) The reaction was stopped by adding 5 μl of DV reagent B (1:128) to the kinase reaction solution and incubated at 23° C. for 60 minutes. The Envision instrument was used to read the plate.
(§6) The data was converted to phosphorylation rate and inhibition rate and the 4 parameter curve fitting (Model 205 in XLFIT5, iDBS) was used to get IC50 data of the compounds.

A further assay has as its target T2, VEGFR2 (Homo sapiens, UniProt P35968).
T2 construct: purchased Life technology
Description: Z'-LYTE in vitro enzyme activity assay, VEGFR2. The settings on record: 100 μM ATP, 60 minutes, room temperature; read-out: IC50 detected by Z'-LYTE, VEGFR2. On the procedure:
as §1, §2, §3, §4
3 nM VEGFR2 protein kinase, 2 μM Tyr1 peptide, 100 μM ATP, 50 mM HEPES (pH 7.5), 10 mM MgCl2, 1 mM EGTA, 0.01% BRIJ-35. The detector plate was Black Proxiplate 384-Plus plate (PerkinElmer), the reaction was performed at room temperature for 60 minutes, and the reaction system was 10 μl.
as §5, §6

For a further assay, the target named is T3, PDGFRB (Homo sapiens, UniProt P09619).
T3 construct: purchased Millipore
T3 sequence (P09619 33-1106): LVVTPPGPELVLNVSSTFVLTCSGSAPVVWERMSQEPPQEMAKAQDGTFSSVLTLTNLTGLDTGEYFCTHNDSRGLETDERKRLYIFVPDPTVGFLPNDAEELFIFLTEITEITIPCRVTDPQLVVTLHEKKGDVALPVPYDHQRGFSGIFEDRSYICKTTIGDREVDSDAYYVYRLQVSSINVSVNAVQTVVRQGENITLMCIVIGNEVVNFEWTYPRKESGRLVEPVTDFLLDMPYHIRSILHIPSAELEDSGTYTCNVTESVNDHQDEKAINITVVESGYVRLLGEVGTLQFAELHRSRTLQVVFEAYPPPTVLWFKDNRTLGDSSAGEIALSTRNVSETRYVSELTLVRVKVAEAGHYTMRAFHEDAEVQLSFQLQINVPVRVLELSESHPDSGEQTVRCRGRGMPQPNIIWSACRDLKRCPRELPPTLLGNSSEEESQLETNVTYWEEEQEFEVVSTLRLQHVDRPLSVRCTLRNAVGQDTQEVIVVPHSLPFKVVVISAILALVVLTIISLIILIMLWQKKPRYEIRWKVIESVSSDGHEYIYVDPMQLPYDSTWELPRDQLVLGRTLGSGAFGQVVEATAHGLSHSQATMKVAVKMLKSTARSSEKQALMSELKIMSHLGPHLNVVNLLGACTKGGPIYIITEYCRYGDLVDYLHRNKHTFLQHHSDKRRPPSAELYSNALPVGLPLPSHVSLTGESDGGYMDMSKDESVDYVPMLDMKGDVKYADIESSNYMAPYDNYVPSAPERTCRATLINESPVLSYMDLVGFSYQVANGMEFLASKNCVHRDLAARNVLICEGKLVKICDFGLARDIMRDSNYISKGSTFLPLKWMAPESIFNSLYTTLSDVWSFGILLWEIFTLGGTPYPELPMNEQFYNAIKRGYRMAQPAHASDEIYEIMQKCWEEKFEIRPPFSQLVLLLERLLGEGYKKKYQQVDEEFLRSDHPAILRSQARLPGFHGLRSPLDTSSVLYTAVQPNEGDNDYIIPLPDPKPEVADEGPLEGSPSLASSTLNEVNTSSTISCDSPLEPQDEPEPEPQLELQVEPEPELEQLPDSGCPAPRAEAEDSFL
As to the kind of experiment: Z'-LYTE in vitro enzyme activity assay, PDGFRB. Conditions: 100 μM ATP, 60 minutes, room temperature; read-out: IC50 detected by Z'-LYTE, PDGFRB. The procedure: as §1, §2, §3, §4
40 nM PDGFRB protein kinase, 2 μM Tyr4 peptide, 100 μM ATP, 50 mM HEPES (pH 7.5), 10 mM MgCl2, 1 mM EGTA, 0.01% BRIJ-35, 2 mM MnCl2, 1 mM DTT. The detector plate was Black Proxiplate 384-Plus plate (PerkinElmer), the reaction was performed at room temperature for 60 minutes, and the reaction system was 10 μl.
as §5, §6

pIC50: −log10 of the molar value.

T1 sequence (P11362 22-822): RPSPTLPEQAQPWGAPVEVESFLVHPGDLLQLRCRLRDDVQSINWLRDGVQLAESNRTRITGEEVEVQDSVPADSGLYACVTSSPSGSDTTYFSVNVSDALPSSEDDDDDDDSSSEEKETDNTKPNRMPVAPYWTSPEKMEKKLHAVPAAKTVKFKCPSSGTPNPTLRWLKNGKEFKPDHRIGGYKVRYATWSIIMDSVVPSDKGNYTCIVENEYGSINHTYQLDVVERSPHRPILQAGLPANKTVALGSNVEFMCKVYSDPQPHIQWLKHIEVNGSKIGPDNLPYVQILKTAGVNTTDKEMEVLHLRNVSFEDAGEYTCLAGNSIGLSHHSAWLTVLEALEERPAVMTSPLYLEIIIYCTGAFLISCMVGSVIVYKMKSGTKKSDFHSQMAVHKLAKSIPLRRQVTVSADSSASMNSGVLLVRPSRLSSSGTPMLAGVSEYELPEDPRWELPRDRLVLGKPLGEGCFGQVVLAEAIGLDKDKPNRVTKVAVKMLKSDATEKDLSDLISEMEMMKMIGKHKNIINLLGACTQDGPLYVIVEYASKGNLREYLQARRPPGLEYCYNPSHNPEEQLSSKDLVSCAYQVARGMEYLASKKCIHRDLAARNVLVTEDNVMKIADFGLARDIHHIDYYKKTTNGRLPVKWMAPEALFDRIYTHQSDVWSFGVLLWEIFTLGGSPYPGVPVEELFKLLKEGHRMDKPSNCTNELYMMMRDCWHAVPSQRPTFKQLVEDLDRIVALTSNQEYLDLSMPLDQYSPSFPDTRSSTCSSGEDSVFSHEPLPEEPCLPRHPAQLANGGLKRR
T2 sequence (P35968 20-1356): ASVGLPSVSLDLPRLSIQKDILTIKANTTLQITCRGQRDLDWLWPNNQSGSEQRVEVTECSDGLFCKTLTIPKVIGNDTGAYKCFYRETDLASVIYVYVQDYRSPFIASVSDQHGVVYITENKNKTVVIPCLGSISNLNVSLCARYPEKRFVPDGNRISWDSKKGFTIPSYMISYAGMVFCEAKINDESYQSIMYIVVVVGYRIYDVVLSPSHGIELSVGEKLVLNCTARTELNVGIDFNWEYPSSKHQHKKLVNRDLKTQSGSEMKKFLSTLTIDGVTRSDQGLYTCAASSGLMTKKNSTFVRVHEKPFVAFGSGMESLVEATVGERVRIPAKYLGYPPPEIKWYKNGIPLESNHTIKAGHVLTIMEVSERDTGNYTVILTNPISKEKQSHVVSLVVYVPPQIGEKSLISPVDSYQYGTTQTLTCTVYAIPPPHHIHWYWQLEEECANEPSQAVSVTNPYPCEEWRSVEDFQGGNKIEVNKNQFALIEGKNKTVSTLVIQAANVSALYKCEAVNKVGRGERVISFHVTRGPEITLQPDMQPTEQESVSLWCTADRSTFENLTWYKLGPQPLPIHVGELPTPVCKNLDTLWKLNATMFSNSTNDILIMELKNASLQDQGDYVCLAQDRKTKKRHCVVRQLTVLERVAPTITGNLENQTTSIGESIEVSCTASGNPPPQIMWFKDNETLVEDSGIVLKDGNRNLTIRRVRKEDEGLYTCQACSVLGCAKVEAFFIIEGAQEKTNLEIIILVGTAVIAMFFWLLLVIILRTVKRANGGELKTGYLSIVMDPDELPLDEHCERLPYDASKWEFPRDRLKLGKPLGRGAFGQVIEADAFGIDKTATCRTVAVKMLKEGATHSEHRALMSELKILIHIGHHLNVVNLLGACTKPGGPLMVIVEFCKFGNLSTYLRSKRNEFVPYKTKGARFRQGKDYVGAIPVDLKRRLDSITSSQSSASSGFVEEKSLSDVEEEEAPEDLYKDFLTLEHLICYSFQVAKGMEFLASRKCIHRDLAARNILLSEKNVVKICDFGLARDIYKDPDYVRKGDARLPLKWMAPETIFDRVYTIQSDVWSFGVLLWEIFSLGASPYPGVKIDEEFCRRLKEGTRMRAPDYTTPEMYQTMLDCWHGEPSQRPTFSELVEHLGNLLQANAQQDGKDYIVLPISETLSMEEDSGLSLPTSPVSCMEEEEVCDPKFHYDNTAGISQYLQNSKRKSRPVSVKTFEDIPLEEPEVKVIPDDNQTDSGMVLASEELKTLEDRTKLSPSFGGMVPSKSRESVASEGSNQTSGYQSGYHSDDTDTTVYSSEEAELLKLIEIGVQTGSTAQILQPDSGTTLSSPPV

A word on the pIC50: it is −log10 of the IC50, conventionally taken in molar units. Take `COc1cc2nccc(Oc3cc(F)c(NC(=S)N4CCCC4)c(F)c3)c2cc1C(N)=O` [Example 91]: the pIC50 was 6.00 to 6.70 at FGFR1, 6.70 to 7.30 on VEGFR2 and 6.00 to 6.70 at PDGFRB.

Take `C#CCNC(=S)Nc1ccc(Oc2ccnc3cc(OC)c(C(N)=O)cc23)cc1Cl` [Example 92]: the pIC50 at FGFR1 was 6.00 to 6.70; at VEGFR2, 6.70 to 7.30; at PDGFRB, 6.70 to 7.30.

Take `COc1cc2nccc(Oc3ccc(NC(=S)NC4CCOC4=O)c(Cl)c3)c2cc1C(N)=O` (stereo not drawn) [Example 93]: the pIC50 at FGFR1, on VEGFR2 and at PDGFRB was 6.00 to 6.70 in each case.

Regarding `COc1cc2nccc(Oc3ccc(NC(=S)NC4CCNC4=O)c(Cl)c3)c2cc1C(N)=O` (stereo not drawn) [Example 94], the negative-log IC50 (pIC50) on FGFR1, on VEGFR2 and at PDGFRB was 6.00 to 6.70 in each case.

As for `COc1cc2nccc(Oc3ccc(NC(=S)N4CC(F)(F)C4)cc3F)c2cc1C(N)=O` [Example 101], the pIC50 at FGFR1 is 6.00 to 6.70; on VEGFR2, 6.00 to 6.70; at PDGFRB, 6.70 to 7.30.

Turning to `COC[C@@H]1CCCN1NC(=S)Nc1ccc(Oc2ccnc3cc(OC)c(C(N)=O)cc23)c(F)c1Cl` [Example 105], the pIC50 on FGFR1, at VEGFR2 and at PDGFRB was 6.00 to 6.70 in each case.

`COc1cc2nccc(Oc3ccc(NC(=S)N4CC[C@H](O)C4)c(Cl)c3F)c2cc1C(N)=O` [Example 106]: the pIC50 on FGFR1 was 6.70 to 7.30; on VEGFR2 it was greater than 7.30; on PDGFRB, 6.00 to 6.70.

`COc1cc2nccc(Oc3ccc(NC(=S)N4CC[C@@H](F)C4)c(Cl)c3F)c2cc1C(N)=O` [Example 108]: the results for the pIC50 on FGFR1, on VEGFR2 and at PDGFRB were 6.70 to 7.30, 6.70 to 7.30 and 6.00 to 6.70, respectively.

Consider `COc1cc2nccc(Oc3ccc(NC(=S)N4CC[C@@H](O)C4)c(Cl)c3F)c2cc1C(N)=O` [Example 111], for which the pIC50 at FGFR1 is 6.70 to 7.30; at VEGFR2, 6.70 to 7.30; on PDGFRB, 6.00 to 6.70.

With `COc1cc2nccc(Oc3ccc(NC(=O)N4CC[C@@H](F)C4)c(Cl)c3F)c2cc1C(N)=O` [Example 113], the pIC50 on FGFR1, at VEGFR2 and on PDGFRB was 6.00 to 6.70 in each case.

As to `COc1cc2nccc(Oc3ccc(NC(=O)N4CC[C@@H](O)C4)c(Cl)c3F)c2cc1C(N)=O` [Example 115], the pIC50 at FGFR1, at VEGFR2 and at PDGFRB was 6.00 to 6.70 throughout.

Consider `COc1cc2nccc(Oc3ccc(NC(=O)N4CC[C@H](F)C4)c(Cl)c3F)c2cc1C(N)=O` [Example 117], for which the figures for the pIC50 on FGFR1, on VEGFR2 and at PDGFRB were 6.00 to 6.70, 6.70 to 7.30 and 6.70 to 7.30, respectively.

As to `COc1cc2nccc(Oc3ccc(NC(=O)N4CC[C@H](O)C4)c(Cl)c3F)c2cc1C(N)=O` [Example 118], the pIC50 is 6.00 to 6.70 on FGFR1, 6.70 to 7.30 on VEGFR2 and 6.70 to 7.30 at PDGFRB.

`COc1cc2nccc(Oc3ccc(NC(=O)N4CC(F)(F)C4)c(Cl)c3F)c2cc1C(N)=O` [Example 119]: the pIC50 was 6.00 to 6.70 on FGFR1, 6.70 to 7.30 at VEGFR2 and greater than 7.30 on PDGFRB.

`COc1cc2nccc(Oc3ccc(NC(=O)N4CCCC4)c(Cl)c3F)c2cc1C(N)=O` [Example 120]: the results for the pIC50 on FGFR1, on VEGFR2 and at PDGFRB were 6.00 to 6.70, 6.70 to 7.30 and 6.70 to 7.30, respectively.

Consider `COc1cc2nccc(Oc3ccc(NC(=O)N4CC(O)C4)c(Cl)c3F)c2cc1C(N)=O` [Example 121], for which the pIC50 at FGFR1 was 6.00 to 6.70; at VEGFR2, 6.70 to 7.30; at PDGFRB, 6.00 to 6.70.

In the case of `COc1cc2nccc(Oc3ccc(NC(=O)N4CC(F)C4)c(Cl)c3F)c2cc1C(N)=O` [Example 122], the pIC50 at FGFR1 was 6.00 to 6.70; at VEGFR2, 6.70 to 7.30; on PDGFRB, greater than 7.30.

Turning to `COc1cc2nccc(Oc3ccc(Nc4c(NCCN(C)C)c(=O)c4=O)c(Cl)c3)c2cc1C(N)=O` [Example 136], the pIC50 at FGFR1, on VEGFR2 and at PDGFRB was 6.00 to 6.70 in each case.

As to `COc1cc2nccc(Oc3ccc(Nc4c(NCCC#N)c(=O)c4=O)c(Cl)c3)c2cc1C(N)=O` [Example 137], the pIC50 on FGFR1, at VEGFR2 and at PDGFRB was 6.00 to 6.70 throughout.

With `COc1cc2nccc(Oc3ccc(Nc4c(NCC(F)(F)F)c(=O)c4=O)c(Cl)c3)c2cc1C(N)=O` [Example 138], the pIC50 on FGFR1, at VEGFR2 and at PDGFRB was 6.00 to 6.70 throughout.

Take `COc1cc2nccc(Oc3ccc(Nc4c(NC5CCOCC5)c(=O)c4=O)c(Cl)c3)c2cc1C(N)=O` [Example 139]: the pIC50 at FGFR1, on VEGFR2 and on PDGFRB was 6.00 to 6.70 throughout.

`CCCNc1c(Nc2ccc(Oc3ccnc4cc(OC)c(C(N)=O)cc34)cc2Cl)c(=O)c1=O` [Example 140]: the pIC50 at FGFR1, at VEGFR2 and on PDGFRB was 6.00 to 6.70 throughout.

As to `COCCCNc1c(Nc2ccc(Oc3ccnc4cc(OC)c(C(N)=O)cc34)cc2Cl)c(=O)c1=O` [Example 141], the pIC50 at FGFR1, on VEGFR2 and at PDGFRB was 6.00 to 6.70 throughout.

For the compound `COc1cc2nccc(Oc3ccc(Nc4c(NCC(C)C)c(=O)c4=O)c(Cl)c3)c2cc1C(N)=O` [Example 144], the pIC50 on FGFR1, at VEGFR2 and on PDGFRB was 6.00 to 6.70 throughout.

`COc1cc2nccc(Oc3ccc(Nc4c(NC5CCC5)c(=O)c4=O)c(Cl)c3)c2cc1C(N)=O` [Example 145]: the pIC50 on FGFR1 is 6.00 to 6.70; on VEGFR2, 6.00 to 6.70; at PDGFRB it was greater than 7.30.

Turning to `COc1cc2nccc(Oc3ccc(Nc4c(Nc5cccnc5)c(=O)c4=O)c(Cl)c3)c2cc1C(N)=O` [Example 147], the pIC50 on FGFR1, on VEGFR2 and on PDGFRB was 6.00 to 6.70 each time.

`COc1cc2nccc(Oc3ccc(Nc4c(NCc5ccccc5)c(=O)c4=O)c(Cl)c3)c2cc1C(N)=O` [Example 148]: the pIC50 at FGFR1 was 6.00 to 6.70; at VEGFR2, 6.00 to 6.70; on PDGFRB it was greater than 7.30.

`COc1cc2nccc(Oc3ccc(Nc4c(NCc5cccnc5)c(=O)c4=O)c(Cl)c3)c2cc1C(N)=O` [Example 149]: the pIC50 at FGFR1, on VEGFR2 and on PDGFRB was 6.00 to 6.70 throughout.

For `COc1cc2nccc(Oc3ccc(Nc4c(NCc5ccccn5)c(=O)c4=O)c(Cl)c3)c2cc1C(N)=O` [Example 150], the pIC50 on FGFR1 is 6.00 to 6.70; at VEGFR2, 6.00 to 6.70; on PDGFRB, greater than 7.30.

Consider `COc1cc2nccc(Oc3ccc(Nc4c(NCc5ccc(Cl)cc5)c(=O)c4=O)c(Cl)c3)c2cc1C(N)=O` [Example 151], for which the pIC50 on FGFR1 was 6.00 to 6.70; at VEGFR2, 6.00 to 6.70; at PDGFRB it was greater than 7.30.

On to `COc1cc2nccc(Oc3ccc(Nc4c(NCc5ccncc5)c(=O)c4=O)c(Cl)c3)c2cc1C(N)=O` [Example 153], for which the pIC50 at FGFR1, on VEGFR2 and at PDGFRB was 6.00 to 6.70 in each case.

`COc1cc2nccc(Oc3ccc(Nc4c(NCCc5ccccc5)c(=O)c4=O)c(Cl)c3)c2cc1C(N)=O` [Example 154]: the pIC50 at FGFR1, on VEGFR2 and at PDGFRB was 6.00 to 6.70 in each case.

For `COc1cc2nccc(Oc3ccc(Nc4c(Nc5cccc(C(F)(F)F)c5)c(=O)c4=O)c(Cl)c3)c2cc1C(N)=O` [Example 155], the pIC50 on FGFR1 was 6.00 to 6.70; at VEGFR2, 6.00 to 6.70; on PDGFRB it was greater than 7.30.

For the compound `COc1cc2nccc(Oc3ccc4nc(NCC(C)C)sc4c3)c2cc1C(N)=O` [Example 156], the pIC50 on FGFR1, at VEGFR2 and on PDGFRB was 6.00 to 6.70 in each case.

For the compound `COc1cc2nccc(Oc3ccc4nc(NCC(F)F)sc4c3)c2cc1C(N)=O` [Example 157], the negative logarithm of the IC50 (pIC50) at FGFR1, at VEGFR2 and at PDGFRB was 6.00 to 6.70 each time.

With `COc1cc2nccc(Oc3ccc4nc(NC5CCC5)sc4c3)c2cc1C(N)=O` [Example 158], the pIC50 at FGFR1, on VEGFR2 and at PDGFRB was 6.00 to 6.70 each time.

On to `COc1cc2nccc(Oc3ccc4nc(NCc5cccc(C(F)(F)F)c5)sc4c3)c2cc1C(N)=O` [Example 161], for which the pIC50 at FGFR1, on VEGFR2 and on PDGFRB was 6.00 to 6.70 each time.
